In patent US11260049B2, “TRPV4 antagonists” (GlaxoSmithKline Intellectual Property (No. 2) Limited, priority 2016, dated 2022) one finds IC50 data, which are given here for 27 compounds.

Chain of human TRPV4 (Q9HBA0 whole entry): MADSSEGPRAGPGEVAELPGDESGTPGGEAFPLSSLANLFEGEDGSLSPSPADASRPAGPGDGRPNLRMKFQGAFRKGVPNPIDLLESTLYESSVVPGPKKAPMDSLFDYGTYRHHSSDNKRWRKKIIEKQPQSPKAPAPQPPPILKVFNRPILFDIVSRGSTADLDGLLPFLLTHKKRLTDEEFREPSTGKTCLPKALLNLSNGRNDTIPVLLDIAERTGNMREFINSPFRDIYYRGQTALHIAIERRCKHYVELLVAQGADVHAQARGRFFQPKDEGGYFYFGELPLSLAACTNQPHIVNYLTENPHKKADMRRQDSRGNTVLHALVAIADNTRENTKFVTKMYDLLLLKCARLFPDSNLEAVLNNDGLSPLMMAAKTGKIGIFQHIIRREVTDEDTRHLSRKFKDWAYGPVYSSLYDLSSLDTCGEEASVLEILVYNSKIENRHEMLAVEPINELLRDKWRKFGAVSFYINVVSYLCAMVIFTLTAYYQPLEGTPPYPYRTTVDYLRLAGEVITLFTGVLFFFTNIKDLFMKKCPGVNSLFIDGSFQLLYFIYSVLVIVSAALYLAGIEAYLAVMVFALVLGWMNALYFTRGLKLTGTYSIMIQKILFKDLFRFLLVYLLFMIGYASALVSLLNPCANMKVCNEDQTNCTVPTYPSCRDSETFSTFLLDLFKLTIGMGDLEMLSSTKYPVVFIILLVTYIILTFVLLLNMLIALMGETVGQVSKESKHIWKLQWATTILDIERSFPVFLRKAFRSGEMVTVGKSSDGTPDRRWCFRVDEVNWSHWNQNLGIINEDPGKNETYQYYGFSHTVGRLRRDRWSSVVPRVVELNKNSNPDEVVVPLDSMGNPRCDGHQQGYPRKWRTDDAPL

The test addresses human TRPV4 (Homo sapiens (Human), UniProt Q9HBA0). Briefly: FLIPR assay for hTRPV4 expressed in BHK cells. Type of test: cell-based. To be noted: inhibition of Agonist Compound (EC80)-induced calcium signal; BHK/AC9 cells expressing human TRPV4; read-out: IC50. As to the method:
FLIPR Assay for hTRPV4 Expressed in BHK Cells:
TRPV4 channel activation results in an influx of divalent and monovalent cations including calcium. The resulting changes in intracellular calcium were monitored using a calcium specific fluorescent dye Fluo-4 (MDS Analytical Technologies). BHK/AC9 cells transduced with BacMam virus expressing the human TRPV4 gene at a MOI of 78 were plated in a 384 well poly-D lysine coated plate (15,000 cells/well in 50 μL culture medium containing DMEM/F12 with 15 mM HEPES, 10% FBS, 1% Penicillin-Streptomycin and 1% L-glutamine). Cells were incubated for 24 hours at 37° C. and 5% CO2. Culture medium was then aspirated using a Tecan plate-washer and replaced with 20 μL/well of dye loading buffer: HBSS, 500 μM Brilliant Black (MDS Analytical Technologies), and 2 μM Fluo-4 AM. Dye loaded plates were then incubated in the dark at room temperature for 1˜1.5 hours.
As to `N#Cc1cc(Cl)ccc1S(=O)(=O)N1C[C@H](S(=O)(=O)c2ccc(C(F)(F)F)nc2)[C@](O)(CO)C1` [Example 40, 5-chloro-2-(((3R,4S)-3-hydroxy-3-(hydroxymethyl)-4-((6-(trifluoromethyl)pyridin-3-yl)sulfonyl)pyrrolidin-1-yl)sulfonyl)benzonitrile], the IC50 lay in the range of 10 to 100 nM.
Take `N#Cc1cc(C(F)(F)F)ccc1S(=O)(=O)N1C[C@H](S(=O)(=O)c2ccc(F)c(F)c2)[C@](O)(CO)C1` [Example 93, 2-(((3R,4S)-4-((3,4-difluorophenyl)sulfonyl)-3-hydroxy-3-(hydroxymethyl)pyrrolidin-1-yl)sulfonyl)-5-(trifluoromethyl)benzonitrile]: the IC50 lay in the range of 10 to 100 nM.
With `N#Cc1ccc(S(=O)(=O)N2C[C@H](S(=O)(=O)c3ccc(C(F)(F)F)cn3)[C@](O)(CO)C2)c(Cl)c1` [Example 110, 3-chloro-4-(((3R,4S)-3-hydroxy-3-(hydroxymethyl)-4-((5-(trifluoromethyl)pyridin-2-yl)sulfonyl)pyrrolidin-1-yl)sulfonyl)benzonitrile], the IC50 lay within 10 to 100 nM.
Turning to `N#Cc1ccc(S(=O)(=O)[C@H]2CN(S(=O)(=O)c3ccc(C(F)(F)F)cc3Cl)C[C@@]2(O)CO)cn1` [Example 92, 5-(((3S,4R)-1-((2-chloro-4-(trifluoromethyl)phenyl)sulfonyl)-4-hydroxy-4-(hydroxymethyl)pyrrolidin-3-yl)sulfonyl)picolinonitrile], the IC50 is 10 to 100 nM.
With `Cc1cc(C(F)(F)F)ccc1S(=O)(=O)N1C[C@H](S(=O)(=O)c2ccc(C#N)c(F)c2)[C@](O)(CO)C1` [Example 71, 2-fluoro-4-(((3S,4R)-4-hydroxy-4-(hydroxymethyl)-1-((2-methyl-4-(trifluoromethyl)phenyl)sulfonyl)pyrrolidin-3-yl)sulfonyl)benzonitrile], the IC50 was in the range of 10 to 100 nM.
As to `COc1ccc(S(=O)(=O)N2C[C@H](S(=O)(=O)c3ccc(C#N)cc3)[C@](O)(CO)C2)c(C(F)(F)F)c1` [Example 31, 4-(((3S,4R)-4-hydroxy-4-(hydroxymethyl)-1-((4-methoxy-2-(trifluoromethyl)phenyl)sulfonyl)pyrrolidin-3-yl)sulfonyl)benzonitrile], the IC50 lay within 10 to 100 nM.
Turning to `N#Cc1ccc(S(=O)(=O)[C@H]2CN(S(=O)(=O)c3ccc(C(F)F)cc3Cl)C[C@@]2(O)CO)cc1` [Example 42, 4-(((3S,4R)-1-((2-chloro-4-(difluoromethyl)phenyl)sulfonyl)-4-hydroxy-4-(hydroxymethyl)pyrrolidin-3-yl)sulfonyl)benzonitrile], the IC50 is 10 to 100 nM.
On to `N#Cc1ccc(S(=O)(=O)N2C[C@H](S(=O)(=O)c3ccc(Cl)cn3)[C@@](O)(CN)C2)c(Cl)c1` [Example 125, 4-(((3R,4S)-3-(aminomethyl)-4-((5-chloropyridin-2-yl)sulfonyl)-3-hydroxypyrrolidin-1-yl)sulfonyl)-3-chlorobenzonitrile], for which the IC50 is 0.1 to 10 nM.
On to `N#Cc1ccc(S(=O)(=O)[C@H]2CN(S(=O)(=O)c3ccc(Cl)cc3Br)C[C@@]2(O)CO)cc1` [Example 59, 4-(((3S,4R)-1-((2-bromo-4-chlorophenyl)sulfonyl)-4-hydroxy-4-(hydroxymethyl)pyrrolidin-3-yl)sulfonyl)benzonitrile], for which the IC50 was in the range of 0.1 to 10 nM.
`CC(C)c1ccc(S(=O)(=O)[C@H]2CN(S(=O)(=O)c3ccc(C#N)cc3Cl)C[C@@]2(O)CO)cc1` [Example 105, 3-chloro-4-(((3R,4S)-3-hydroxy-3-(hydroxymethyl)-4-((4-isopropylphenyl)sulfonyl)pyrrolidin-1-yl)sulfonyl)benzonitrile]: the IC50 lay within 10 to 100 nM.
Turning to `N#Cc1ccc(S(=O)(=O)[C@H]2CN(S(=O)(=O)c3ccc(C(F)(F)F)cc3Br)C[C@@]2(O)CO)cc1` [Example 32, 4-(((3S,4R)-1-((2-bromo-4-(trifluoromethyl)phenyl)sulfonyl)-4-hydroxy-4-(hydroxymethyl)pyrrolidin-3-yl)sulfonyl)benzonitrile], the IC50 was in the range of 10 to 100 nM.
Turning to `N#Cc1ccc(S(=O)(=O)[C@H]2CN(S(=O)(=O)c3ccc(Cl)cc3Cl)C[C@@]2(O)CO)c(F)c1` [Example 86, 4-(((3S,4R)-1-((2,4-dichlorophenyl)sulfonyl)-4-hydroxy-4-(hydroxymethyl)pyrrolidin-3-yl)sulfonyl)-3-fluorobenzonitrile], the IC50 is 10 to 100 nM.
`O=S(=O)(c1ccc(Cl)c(Cl)c1)[C@H]1CN(S(=O)(=O)c2ccc(Cl)cc2Cl)C[C@@]1(O)CO` [Example 114, (3R,4S)-1-((2,4-dichlorophenyl)sulfonyl)-4-((3,4-dichlorophenyl)sulfonyl)-3-(hydroxymethyl)pyrrolidin-3-ol]: the IC50 was 10 to 100 nM.
Consider `N#Cc1ccc(S(=O)(=O)[C@H]2CN(S(=O)(=O)c3ccc(C(F)(F)F)cc3Cl)C[C@@]2(O)CO)cc1F` [Example 14, 4-(((3S,4R)-1-((2-chloro-4-(trifluoromethyl)phenyl)sulfonyl)-4-hydroxy-4-(hydroxymethyl)pyrrolidin-3-yl)sulfonyl)-2-fluorobenzonitrile], for which the IC50 lay in the range of 0.1 to 10 nM.
As for `N#Cc1ccc(S(=O)(=O)[C@H]2CN(S(=O)(=O)c3cc(F)c(Cl)cc3Cl)C[C@@]2(O)CO)cc1` [Example 63, 4-(((3S,4R)-1-((2,4-dichloro-5-fluorophenyl)sulfonyl)-4-hydroxy-4-(hydroxymethyl)pyrrolidin-3-yl)sulfonyl)benzonitrile], the IC50 was 10 to 100 nM.
In the case of `N#Cc1ccc(S(=O)(=O)N2C[C@H](S(=O)(=O)c3ccc(C(F)(F)F)cc3)[C@](O)(CO)C2)c(OC2CC2)c1` [Example 57, 3-cyclopropoxy-4-(((3R,4S)-3-hydroxy-3-(hydroxymethyl)-4-((4-(trifluoromethyl)phenyl)sulfonyl)pyrrolidin-1-yl)sulfonyl)benzonitrile], the IC50 lay within 10 to 100 nM.
Next, `N#Cc1cc(C(F)(F)F)ccc1S(=O)(=O)N1C[C@H](S(=O)(=O)c2ccc(Cl)cc2)[C@](O)(CO)C1` [Example 117, 2-(((3R,4S)-4-((4-chlorophenyl)sulfonyl)-3-hydroxy-3-(hydroxymethyl)pyrrolidin-1-yl)sulfonyl)-5-(trifluoromethyl)benzonitrile]: 0.1 to 10 nM; `N#Cc1ccc(S(=O)(=O)[C@H]2CN(S(=O)(=O)c3ccc(C(F)(F)F)cc3Cl)C[C@@]2(O)CO)cc1Cl` [Example 101, 2-chloro-4-(((3S,4R)-1-((2-chloro-4-(trifluoromethyl)phenyl)sulfonyl)-4-hydroxy-4-(hydroxymethyl)pyrrolidin-3-yl)sulfonyl)benzonitrile]: 10 to 100 nM; `N#Cc1ccc(S(=O)(=O)[C@H]2CN(S(=O)(=O)c3ccc(C(F)(F)F)cc3F)C[C@@]2(O)CO)cc1F` [Example 69, 2-fluoro-4-(((3S,4R)-1-((2-fluoro-4-(trifluoromethyl)phenyl)sulfonyl)-4-hydroxy-4-(hydroxymethyl)pyrrolidin-3-yl)sulfonyl)benzonitrile]: 10 to 100 nM.
Take `Cc1nc(C(F)(F)F)ccc1S(=O)(=O)N1C[C@H](S(=O)(=O)c2ccc(C#N)c(F)c2)[C@](O)(CO)C1` [Example 72, 2-fluoro-4-(((3S,4R)-4-hydroxy-4-(hydroxymethyl)-1-((2-methyl-6-(trifluoromethyl)pyridin-3-yl)sulfonyl)pyrrolidin-3-yl)sulfonyl)benzonitrile]: the IC50 fell in the range of 10 to 100 nM.
Regarding `C[C@H](O)[C@]1(O)CN(S(=O)(=O)c2ccc(C#N)cc2Cl)C[C@@H]1S(=O)(=O)c1ccc(Cl)cn1` [Example 119, 3-chloro-4-(((3R,4S)-4-((5-chloropyridin-2-yl)sulfonyl)-3-hydroxy-3-((S)-1-hydroxyethyl)pyrrolidin-1-yl)sulfonyl)benzonitrile], the IC50 was 0.1 to 10 nM.
For `CCc1cc(C#N)ccc1S(=O)(=O)N1C[C@H](S(=O)(=O)c2ccc(Cl)cc2)[C@](O)(CO)C1` [Example 46, 4-(((3R,4S)-4-((4-chlorophenyl)sulfonyl)-3-hydroxy-3-(hydroxymethyl)pyrrolidin-1-yl)sulfonyl)-3-ethylbenzonitrile], the IC50 fell in the range of 10 to 100 nM.
Next, `Cc1ccc(S(=O)(=O)N2C[C@H](S(=O)(=O)c3ccc(C#N)cc3)[C@](O)(CO)C2)c(Cl)c1` [Example 58, 4-(((3S,4R)-1-((2-chloro-4-methylphenyl)sulfonyl)-4-hydroxy-4-(hydroxymethyl)pyrrolidin-3-yl)sulfonyl)benzonitrile]: 10 to 100 nM; `N#Cc1ccc(S(=O)(=O)[C@H]2CN(S(=O)(=O)c3ccccc3Cl)C[C@@]2(O)CO)cc1F` [Example 11, 4-(((3S,4R)-1-((2-chlorophenyl)sulfonyl)-4-hydroxy-4-(hydroxymethyl)pyrrolidin-3-yl)sulfonyl)-2-fluorobenzonitrile]: 10 to 100 nM.
For `N#Cc1ccccc1S(=O)(=O)N1C[C@H](S(=O)(=O)c2ccc(Cl)cc2)[C@](O)(CO)C1` [Example 47, 2-(((3R,4S)-4-((4-chlorophenyl)sulfonyl)-3-hydroxy-3-(hydroxymethyl)pyrrolidin-1-yl)sulfonyl)benzonitrile], the IC50 fell in the range of 10 to 100 nM.
`O=S(=O)(c1ccc(Cl)cc1)[C@H]1CN(S(=O)(=O)c2cccnc2OC(F)F)C[C@@]1(O)CO` [Example 67, (3R,4S)-4-((4-chlorophenyl)sulfonyl)-1-((2-(difluoromethoxy)pyridin-3-yl)sulfonyl)-3-(hydroxymethyl)pyrrolidin-3-ol]: the IC50 fell in the range of 10 to 100 nM.
For `N#Cc1ccc(S(=O)(=O)[C@H]2CN(S(=O)(=O)c3ccc(C(F)(F)F)cc3F)C[C@@]2(O)CO)cc1` [Example 36, 4-(((3S,4R)-1-((2-fluoro-4-(trifluoromethyl)phenyl)sulfonyl)-4-hydroxy-4-(hydroxymethyl)pyrrolidin-3-yl)sulfonyl)benzonitrile], the IC50 was 10 to 100 nM.

One may read the IC50 as the midpoint of a concentration-inhibition curve.
